Source: PMC6687522 (Drug development research, 2019)

Biological target: T1, human neutrophil elastase (HNE) (Homo sapiens, UniProt P08246)
T1 sequence (P08246 30-267): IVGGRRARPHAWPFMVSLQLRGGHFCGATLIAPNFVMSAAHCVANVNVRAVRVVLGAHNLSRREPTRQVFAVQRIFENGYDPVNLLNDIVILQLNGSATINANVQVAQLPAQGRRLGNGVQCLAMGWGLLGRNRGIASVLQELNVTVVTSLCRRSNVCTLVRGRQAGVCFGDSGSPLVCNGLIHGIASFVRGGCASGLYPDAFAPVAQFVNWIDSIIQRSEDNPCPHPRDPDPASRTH
Assay: HNE inhibition assay
Format: biochemical

| SMILES | IC50 | fold more potent than the 5-chloro derivative 7b (ratio of HNE IC50 values) | fold less potent than the 5-chloro derivative 7b (ratio of HNE IC50 values) |
| --- | --- | --- | --- |
| Cc1cccc(C(=O)n2c(C#N)cc3cccnc32)c1 [Compound 2d, 1-(3-Methylbenzoyl)-1H-pyrrolo[2,3-b]pyridine-2-carbonitrile] | 3.5 ± 1.2 µM |  |  |
| Cc1cccc(C(=O)n2c(C)c(C#N)c3cccnc32)c1 [Compound 2e, 2-Methyl-1-(3-methylbenzoyl)-1H-pyrrolo[2,3-b]pyridine-3-carbonitrile] | 10.8 ± 2.2 µM |  |  |
| Cc1cccc(C(=O)n2cc(C#N)c3cc(Cl)cnc32)c1 [Compound 7b, 5-Chloro-1-(3-methylbenzoyl)-1H-pyrrolo[2,3-b]pyridine-3-carbonitrile] | 0.16 ± 0.05 µM |  |  |
| COc1cccc(-c2cnc3c(c2)c(C#N)cn3C(=O)c2cccc(C)c2)c1 [Compound 14d, 5-(3-Methoxyphenyl)-1-(3-methylbenzoyl)-1H-pyrrolo[2,3-b]pyridine-3-carbonitrile] | 0.07 ± 0.015 µM |  |  |
| COc1ccc2cc(-c3cnc4c(c3)c(C#N)cn4C(=O)c3cccc(C)c3)ccc2c1 [Compound 14e, 5-(6-Methoxynaphthalen-2-yl)-1-(3-methylbenzoyl)-1H-pyrrolo[2,3-b]pyridine-3-carbonitrile] | 1.6 ± 0.33 µM |  |  |
| Cc1cccc(C(=O)n2cc(C#N)c3cc(-c4ccsc4)cnc32)c1 [Compound 14f, 1-(3-methylbenzoyl)-5-(thiophen-3-yl)-1H-pyrrolo[2,3-b]pyridine-3-carbonitrile] | 0.042 ± 0.015 µM |  |  |
| Cc1cccc(C(=O)n2cc(C#N)c3cc(-c4cccnc4)cnc32)c1 [Compound 14g, 1-(3-methylbenzoyl)-5-(pyridin-3-yl)-1H-pyrrolo[2,3-b]pyridine-3-carbonitrile] | 0.015 ± 0.004 µM |  |  |

Continued, values first:

| IC50 | fold more potent than the 5-chloro derivative 7b (ratio of HNE IC50 values) | fold less potent than the 5-chloro derivative 7b (ratio of HNE IC50 values) | SMILES |
| --- | --- | --- | --- |
| 0.051 ± 0.014 µM | about 3 fold |  | Cc1cccc(C(=O)n2cc(C#N)c3cc(Br)cnc32)c1 [Compound 7a, 5-Bromo-1-(3-methylbenzoyl)-1H-pyrrolo[2,3-b]pyridine-3-carbonitrile] |
| 0.4 ± 0.11 µM |  | about 2 fold | Cc1cccc(C(=O)n2cc(C#N)c3cc([N+](=O)[O-])cnc32)c1 [Compound 7c, 1-(3-Methylbenzoyl)-5-nitro-1H-pyrrolo[2,3-b]pyridine-3-carbonitrile] |
| 0.05 ± 0.02 µM |  |  | Cc1cccc(C(=O)n2cc(C#N)c3cc(-c4ccccc4)cnc32)c1 [Compound 14a, 1-(3-Methylbenzoyl)-5-phenyl-1H-pyrrolo[2,3-b]pyridine-3-carbonitrile] |
| 0.18 ± 0.07 µM |  |  | Cc1cccc(C(=O)n2cc(C#N)c3cc(-c4cccc(C(F)(F)F)c4)cnc32)c1 [Compound 14b, 1-(3-Methylbenzoyl)-5-(3-(trifluoromethyl)phenyl)-1H-pyrrolo[2,3-b]pyridine-3-carbonitrile] |
| 0.13 ± 0.04 µM |  |  | Cc1cccc(C(=O)n2cc(C#N)c3cc(-c4cccc(C)c4)cnc32)c1 [Compound 14c, 1-(3-Methylbenzoyl)-5-(m-tolyl)-1H-pyrrolo[2,3-b]pyridine-3-carbonitrile] |
